# From US20190307820A1, “COMPOSITIONS AND METHODS OF USING STAT1/3 INHIBITORS WITH ONCOLYTIC HERPES VIRUS” (priority 2016, published 2019)
# Tests used:
# [1] = system: subcutaneous U87 tumor; experiment: Subcutaneous U87 tumor bearing mice, tumor size after nifuroxazide; assay type: in vivo; conditions: injected in the peritoneum, after 7 days treatment
# Experimental: (§1) FIGS. 1A-1B are graphs that show an anti-tumor effect of nifuroxazide. (FIG. 1A) Cells were treated with indicated concentration of nifuroxazide for 72 hours. Cytotoxicity was measured by using MTT assay. (FIG. 1B) Subcutaneously U87 tumor bearing mice were peritoneally injected with indicated doses of nifuroxazide. Tumor size was measured using calipers at day 7 post nifuroxazide treatment.
# (§2) In this example, the antitumor effect of nifuroxazide is evaluated in different tumor cells. Cells were treated with nifuroxazide for 72 hours (FIG. 1A). […] To verify the anti-tumor efficacy of nifuroxazide in vivo, animals with subcutaneous U87 tumor implants were injected in the peritoneum with vehicle, 1 mg/kg nifuroxazide and 50 mg/kg nifuroxazide. […] Tumor volume was reduced around 25% and 60% after 7 days treatment with 1 mg/kg nifuroxazide and 50 mg/kg nifuroxazide respectively (FIG. 1B).
# [2] = system: ICP4; experiment: Western blot of ICP4 in HrR3 infected U87 cells; assay type: cell-based, HSV-1; conditions: 0.5 μM, 1 μM and 10 μM nifuroxazide, HrR3 MOI-3, 24 hours
# Experimental: FIGS. 4A-4C show the effect of nifuroxazide on HSV-1 gene expression. (FIG. 4A) U87 cells were treated with HrR3 viruses at a MOI-3 and indicated doses of nifuroxazide. 24 hours post infected, total protein was extracted and subjected to western blot analysis. (FIG. 4B) U87 cells were treated with HrR3 at a MOI-5 and indicated concentration of nifuroxazide for 6 hours. ICP27 mRNA level was detected by RT-qPCR. (FIG. 4C) Relative mRNA level (2^−ΔΔCT) is shown. Data are presented as mean SD, *P<0.05 vs corresponding vehicle treatment.
# In this example, the underlying mechanism of nifuroxazide mediated oHSV-1 replication enhancement was examined. The effect of nifuroxazide on viral immediate early gene, ICP27 and ICP4 expression was established by Western blot analysis.
# [3] = system: SF126 cells; experiment: MTT cytotoxicity assay, SF126 cells; assay type: cell-based; conditions: Homo sapiens, SF-126, 72 hours, read-out: Inhibitory concentration 50% (IC50)
# Experimental: as §1, §2
# Cells were seeded in a 96-well plate at a density of 1×104 (U87). After overnight incubation, cells were treated with only vehicle or indicated MOI of virus or indicated concentration of drugs or reagents. After 2 to 3 days of treatment cell viability was measured by MTT assay (Sigma, Canada) according to the manufacturer's instruction. […] After overnight incubation with lysis buffer, cell viability was measured at 595 nm using a plate reader (Envision 2103 Multilabel reader, Perkin Elmer).
# [4] = target: T1, STAT1 (Homo sapiens, UniProt P42224); experiment: Western blot of STAT1 phosphorylation in U87 cells; assay type: cell-based
# T1 construct: Extracted protein was then subjected to western blot assay; endogenous in cells; host or cells: U87 cells, with or without HrR3 infection
# T1 sequence (P42224 1-750): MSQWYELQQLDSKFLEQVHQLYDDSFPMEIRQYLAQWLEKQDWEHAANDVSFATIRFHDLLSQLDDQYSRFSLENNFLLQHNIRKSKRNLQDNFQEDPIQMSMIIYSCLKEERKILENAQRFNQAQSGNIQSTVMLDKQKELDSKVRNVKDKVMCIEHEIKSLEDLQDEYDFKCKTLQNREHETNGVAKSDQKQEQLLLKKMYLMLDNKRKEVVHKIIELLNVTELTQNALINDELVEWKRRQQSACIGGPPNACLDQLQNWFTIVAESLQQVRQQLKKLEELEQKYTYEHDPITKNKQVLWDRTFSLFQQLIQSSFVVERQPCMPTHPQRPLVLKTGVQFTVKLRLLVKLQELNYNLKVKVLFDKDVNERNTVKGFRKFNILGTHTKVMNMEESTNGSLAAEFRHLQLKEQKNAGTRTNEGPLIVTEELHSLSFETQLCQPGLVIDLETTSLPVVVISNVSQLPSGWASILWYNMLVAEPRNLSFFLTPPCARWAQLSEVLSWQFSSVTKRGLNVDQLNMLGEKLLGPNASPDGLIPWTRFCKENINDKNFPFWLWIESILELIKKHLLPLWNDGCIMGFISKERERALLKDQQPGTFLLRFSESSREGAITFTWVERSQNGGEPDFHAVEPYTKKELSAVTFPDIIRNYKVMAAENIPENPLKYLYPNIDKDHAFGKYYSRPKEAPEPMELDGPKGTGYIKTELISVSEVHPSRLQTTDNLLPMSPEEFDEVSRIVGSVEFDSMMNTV
# Experimental: (FIG. 5A) U87 cells were treated with HrR3 at a MOI of 5 and indicated concentration of nifuroxazide for 6 hours. Extracted protein was then subjected to western blot assay. (FIG. 5B) U87 cells were treated with indicated concentration of HrR3 or nifuroxazide or stattic or in combination for 72 hours. Cytotoxicity was measured by MTT assay. (FIG. 5C) Relative mRNA level (2^−ΔΔCT) is shown. Data are presented as mean SD, *P<0.05 vs corresponding vehicle treatment.
# FIG. 19A and FIG. 19B, U87 cells (A) or CT26 cells (B) were treated with the indicated concentrations of HrR3 or NF or a combination. Total protein was extracted after 24 hours and subjected to western blot analysis. Band intensity was measured using Image J software and normalized to β-actin. Samples were run in triplicate and data are as means±S.E. Statistically significant differences are indicated by P<0.05 or P<0.01. FIG. 19C, Mice subcutaneously bearing U87 tumors were intratumorally injected with a single dose of HrR3 virus (1×10^6 PFU) and/or peritoneally injected doses of NF as indicated. Tumors were harvested on day 10 post treatment and total protein was extracted from a mouse of each treatment group and subjected to western blot analysis in triplicate. Results are reported as means±S.E.
# Expression of key regulator of the Type1 interferon signaling, STAT1 and STAT3, was determined in nifuroxazide treated oHSV-1 infected U87 cells.
# NF is a known inhibitor of STAT1 and STAT3. To evaluate the underlying molecular mechanism of the anti-tumour effect of the NF and oHSV-1 combination, the STAT1 and STAT3 status in U87 cells (FIG. 19A) and CT26 cells (FIG. 19B) cells was determined after an overnight treatment with NF and oncolytic viruses.
compound,measurement,setting,value
"O=C(N/N=C/c1ccc([N+](=O)[O-])o1)c1ccc(O)cc1 [nifuroxazide, Benzoic acid, 4-hydroxy-, [(5-nitro-2-furanyl)metylene]hydrazide]",Tumor volume was reduced,[1]; 1 mg/kg nifuroxazide,around 25%
same,Tumor volume was reduced,[1]; 50 mg/kg nifuroxazide,~60%
same,ICP4 expression,[2],not ICP4 expression
same,IC50,[3],~20 µM
same,HrR3 induced upregulation of STAT1 phosphorylation,[4]; 24 hours,effectively suppressed
same,STAT1 phosphorylation,"[4]; HrR3 MOI of 5, 6 hours",dose dependent STAT1 and STAT3 phosphorylation reduction
same,phosphorylation of STAT1,"[4]; NF alone, 24 hours",dose dependent inhibition
